The values that follow come from US7541359B2, “N-heteroarylpiperazinyl ureas as modulators of fatty acid amide hydrolase” (Janssen Pharmaceutica N.V., priority 2005, dated 2009).

In one assay the test system is CREAE mice. As to conditions: model of multiple sclerosis; cited from earlier work.
The subject of assay [1] is rats. As to conditions: cited from earlier work.
Assay [2] has as its system rats. The settings on record: cited from earlier work. This is another data set of the same source.
The target in a further assay is T1, Rat FAAH (Rattus norvegicus, UniProt P97612).
T1 construct: expressed in transfected cells; host or cells: SK-N-MC cells, electroporated, G418-selected clones
T1 sequence (P97612 1-579): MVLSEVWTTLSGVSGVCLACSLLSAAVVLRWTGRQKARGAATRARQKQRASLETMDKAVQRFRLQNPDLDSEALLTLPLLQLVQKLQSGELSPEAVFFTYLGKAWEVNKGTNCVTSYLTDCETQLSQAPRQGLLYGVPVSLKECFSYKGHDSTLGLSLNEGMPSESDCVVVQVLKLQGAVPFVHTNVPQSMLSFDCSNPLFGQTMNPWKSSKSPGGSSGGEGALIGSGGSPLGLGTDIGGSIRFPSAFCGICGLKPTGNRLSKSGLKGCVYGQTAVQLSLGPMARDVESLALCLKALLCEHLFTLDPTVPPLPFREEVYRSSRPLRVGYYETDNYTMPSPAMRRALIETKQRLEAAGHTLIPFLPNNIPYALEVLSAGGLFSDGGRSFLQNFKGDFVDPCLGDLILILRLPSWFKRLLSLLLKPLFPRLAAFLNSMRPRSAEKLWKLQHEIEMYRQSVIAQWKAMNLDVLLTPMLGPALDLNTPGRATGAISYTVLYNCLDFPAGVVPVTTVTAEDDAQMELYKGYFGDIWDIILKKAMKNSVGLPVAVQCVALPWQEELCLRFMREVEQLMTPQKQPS
Briefly: Assay Method 3: FAAH assay, homogenate of SK-N-MC cells transfected with rat FAAH. The assay is classed as biochemical. As to conditions: rat FAAH transfected SK-N-MC cell homogenate; 3H-AEA tracer 80 nM; rt 1 h. The method, then: Assay Method 3 A. Transfection of Cells with Rat FAAH
A 10-cm tissue culture dish with a confluent monolayer of SK-N-MC cells was split 2 days (d) prior to transfection. Using sterile technique, the media was removed and the cells were detached from the dish by the addition of trypsin. One fifth of the cells were then placed onto a new 10-cm dish. Cells were grown in a 37° C. incubator with 5% CO2 in Minimal Essential Media Eagle with 10% Fetal Bovine Serum. After 2 d, cells were approximately 80% confluent. These cells were removed from the dish with trypsin and pelleted in a clinical centrifuge. The pellet was re-suspended in 400 μL complete media and transferred to an electroporation cuvette with a 0.4 cm gap between the electrodes. Supercoiled rat FMH cDNA (1 μg) was added to the cells and mixed. The voltage for the electroporation was set at 0.25 kV, and the capacitance was set at 960 μF. After electroporation, the cells were diluted into complete media (10 mL) and plated onto four 10-cm dishes. Because of the variability in the efficiency of electroporation, four different concentrations of cells were plated. […] After 10 d, dishes were analyzed for surviving colonies of cells. Dishes with well-isolated colonies were used. Cells from individual colonies were isolated and tested.
The assay mixture consisted of 50 μL of the cell homogenate, 10 μL of the test compound, and 40 μL of anandamide [1-^3H-ethanolamine] (^3H-AEA, Perkin-Elmer, 10.3 Ci/mmol), which was added last, for a final tracer concentration of 80 nM. The reaction mixture was incubated at rt for 1 h. During the incubation, 96-well Multiscreen filter plates (catalog number MAFCNOB50: Millipore, Bedford, Mass., USA) were loaded with 25 μL of activated charcoal (Multiscreen column loader, catalog number MACL09625, Millipore) and washed once with 100 μL of MeOH. […] After the 1 h incubation, 60 μL of the reaction mixture were transferred to the charcoal plates, which were then assembled on top of the DYNEX plates using Centrifuge Alignment Frames (catalog number MACF09604, Millipore). The unbound labeled ethanolamine was centrifuged through to the bottom plate (5 min at 2000 rpm), which was preloaded with the scintillant, as described above. The plates were sealed and left at rt for 1 h before counting on a Hewlett Packard TopCount.

The target in assay [3] is T2, FAAH (Homo sapiens, UniProt O00519).
T2 sequence (O00519 1-579): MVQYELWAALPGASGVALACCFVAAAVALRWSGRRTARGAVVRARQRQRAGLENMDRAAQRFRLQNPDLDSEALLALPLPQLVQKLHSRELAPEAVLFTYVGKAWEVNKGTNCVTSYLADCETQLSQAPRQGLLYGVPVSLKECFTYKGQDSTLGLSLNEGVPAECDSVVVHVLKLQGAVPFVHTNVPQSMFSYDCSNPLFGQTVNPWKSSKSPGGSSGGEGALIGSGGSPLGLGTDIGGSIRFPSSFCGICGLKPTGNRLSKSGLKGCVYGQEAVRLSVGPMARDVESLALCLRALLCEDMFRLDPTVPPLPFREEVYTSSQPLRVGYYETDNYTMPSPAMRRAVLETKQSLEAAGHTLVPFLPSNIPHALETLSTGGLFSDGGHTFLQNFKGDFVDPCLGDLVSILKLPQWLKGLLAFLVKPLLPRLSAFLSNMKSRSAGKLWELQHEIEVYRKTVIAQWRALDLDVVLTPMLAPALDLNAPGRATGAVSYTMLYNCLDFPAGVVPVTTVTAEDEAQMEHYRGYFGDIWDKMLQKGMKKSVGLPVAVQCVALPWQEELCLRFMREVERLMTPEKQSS
Briefly: Assay Method 2: FAAH assay, homogenate of SK-N-MC cells transfected with human FAAH. The settings on record: human FAAH transfected SK-N-MC cell homogenate; 3H-AEA tracer 80 nM; rt 1 h. The assay is classed as biochemical. Details: expressed in transfected cells; host or cells: SK-N-MC cells, electroporated, G418-selected clones. The method, then: Assay Method 2 A. Transfection of Cells with Human FAAH
A 10-cm tissue culture dish with a confluent monolayer of SK-N-MC cells was split 2 days (d) prior to transfection. Using sterile technique, the media was removed and the cells were detached from the dish by the addition of trypsin. One fifth of the cells were then placed onto a new 10-cm dish. Cells were grown in a 37° C. incubator with 5% CO2 in Minimal Essential Media Eagle with 10% Fetal Bovine Serum. After 2 d, cells were approximately 80% confluent. These cells were removed from the dish with trypsin and pelleted in a clinical centrifuge. The pellet was re-suspended in 400 μL complete media and transferred to an electroporation cuvette with a 0.4 cm gap between the electrodes. Supercoiled human FMH cDNA (1 μg) was added to the cells and mixed. The voltage for the electroporation was set at 0.25 kV, and the capacitance was set at 960 μF. After electroporation, the cells were diluted into complete media (10 mL) and plated onto four 10-cm dishes. Because of the variability in the efficiency of electroporation, four different concentrations of cells were plated. The ratios used were 1:20, 1:10, and 1:5, with the remainder of the cells being added to the fourth dish. The cells were allowed to recover for 24 h before adding the selection media (complete media with 600 μg/mL G418). After 10 d, dishes were analyzed for surviving colonies of cells. Dishes with well-isolated colonies were used. Cells from individual colonies were isolated and tested.
The assay mixture consisted of 50 μL of the cell homogenate, 10 μL of the test compound, and 40 μL of anandamide [1-^3H-ethanolamine] (^3H-AEA, Perkin-Elmer, 10.3 Ci/mmol), which was added last, for a final tracer concentration of 80 nM. The reaction mixture was incubated at rt for 1 h. During the incubation, 96-well Multiscreen filter plates (catalog number MAFCNOB50; Millipore, Bedford, […]., USA) were loaded with 25 μL of activated charcoal (Multiscreen column loader, catalog number MACL09625, Millipore) and washed once with 100 μL of MeOH. Also during the incubation, 96-well DYNEX MicroLite plates (catalog number NL510410) were loaded with 100 μL of MicroScint40 (catalog number 6013641, Packard Bioscience, Meriden, Conn., USA). After the 1 h incubation, 60 μL of the reaction mixture were transferred to the charcoal plates, which were then assembled on top of the DYNEX plates using Centrifuge Alignment Frames (catalog number MACF09604, Millipore). The unbound labeled ethanolamine was centrifuged through to the bottom plate (5 min at 2000 rpm), which was preloaded with the scintillant, as described above. The plates were sealed and left at rt for 1 h before counting on a Hewlett Packard TopCount.

Assay [4] concerns the target T2, FAAH. More on the design: T84 frozen pellets (contents of 1-4×15 cm culture dishes) were homogenized in 300 mL of FAAH assay buffer; endogenous in cells; host or cells: T84 cells (homogenate). As to conditions: cited from earlier work.
Assay [5] has as its system rats. As to conditions: cited from earlier work. This is another data set of the same source.
Assay [6] concerns rats. As to conditions: cited from earlier work. The source holds these as a separate data set.
For assay [7], the system named is rats. As to conditions: rat; cited from earlier work.
Assay [8] relates to rats. As to conditions: cited from earlier work. This is another data set of the same source.

For the compound `CCCCCCCCCCCCCCCCS(=O)(=O)F` [AM374], the reduction of spasticity result with CREAE mice is on record as “significantly reduce spasticity”.
Regarding `Cc1nc(-c2ccccc2)c(-c2ccccc2)n1CCCCCCNC(=O)Oc1ccccc1F` [BMS-1], the “analgesic effect in the Chung spinal nerve ligation model of neuropathic pain” value in the assay on rats [1] is “analgesic effect”. Besides, the “analgesic effect in the Hargraves test of acute thermal nociception” value with rats [2] is listed as “analgesic effect”.
Turning to `O=C(Nc1ccccc1)N1CCN(c2nc(N3CCOCC3)ns2)CC1` [Example 44, 4-(3-Morpholin-4-yl-[1,2,4]thiadiazol-5-yl)-piperazine-1-carboxylic acid phenylamide], the IC50 against Rat FAAH and at FAAH [3] was over 10 µM throughout.
Turning to `O=C(CCCCCCc1ccccc1)c1ncc(-c2ccccn2)o1` [OL-135], the “inhibition of FAAH” value on FAAH [4] was “potent inhibitor”. In the assay with rats [5], the “analgesic activity in the tail emersion test of thermal nociception” value is listed as “analgesic activity”. The “analgesic efficacy/activity in the hot plate test” value with rats [6] was “analgesic activity”.
Turning to `NC(=O)c1cccc(-c2cccc(OC(=O)NC3CCCCC3)c2)c1` [URB-597], in the assay on rats [7], the “analgesic efficacy in the formalin test” value is “analgesic efficacy”. Also, the “analgesic efficacy/activity in the hot plate test” value in the assay on rats [6] is on record as “analgesic efficacy”. Moreover, in the assay on rats [8], the “efficacy in the zero plus maze model of anxiety” value was “efficacy”.

As a reminder, the IC50 is the point on the concentration scale where inhibition reaches its midpoint. Read a low IC50 as greater potency in that assay.
